Measurements: paper PMC8439242, “Pharmacokinetic study on the interaction between pachymic acid and bavachin and its potential mechanism” (Pharmaceutical Biology, 2021)

Test system: T1, CYP2C9
T1 construct: gene Cyp2c11; 'CYP2C9' is the human name, rat has no CYP2C9, rat Cyp2c forms turn over the diclofenac probe
Test: diclofenac probe turnover in rat liver microsomes, LC-MS/MS
Type: biochemical
Conditions: 50 μM diclofenac; 0.5 mg/mL microsomal protein; 30 min incubation; 0-100 μM inhibitor

With `C=C(CC[C@@H](C(=O)O)[C@H]1[C@H](O)C[C@@]2(C)C3=C(CC[C@]12C)[C@@]1(C)CC[C@H](OC(C)=O)C(C)(C)[C@@H]1CC3)C(C)C` [pachymic acid] as the compound, how does the IC50 read?
The IC50 was 21.2 µM.
